Results as given in patent US7629318B2, “Immunosuppressant compounds, methods and uses related thereto” (priority 2002, dated 2009).
Several values for one entry are separate records, joined by “and”; a condition that tells them apart may be missing. Equal entries are not always repeated. Numbered stars: 1 amine (or outer) side, 2 acyl side, 3 side chain; on linkers, the order of the positions; unused ones are H or OH. Square brackets hold non-standard residues; d marks the D form. Peptide text beside a SMILES is read from it. X1 = CC(C)c1oc([C@H](CO)N[*:1])nc1C(=O)[*:2]; Pro(3R-Ph) = O=C(O)[C@H]1NCC[C@@H]1c1ccccc1; Tic = O=C(O)[C@@H]1Cc2ccccc2CN1; Cha = N[C@@H](CC1CCCCC1)C(=O)O

Experiments:
[1] = system: T cell activation from 0404(DR14) chimeric MHCII-mice; assay: In vivo inhibition of T cell activation by co-immunisation, DR14 mice immunised with OVA; parameters: species or system mouse; % Reduction of response to PPD(OVA): concentration or dose not given beside the values
Excerpt: (§1) Mouse strains DR4 and DR14 carry chimeric MHC-II transgenes that encode the N-terminal domains of the respective DR molecules (forming the peptide binding site) and the remaining (2nd extracellular domains, transmembrane and intracytoplasmic domains) of the murine class II molecule I Ed. These strains are deficient of other murine class II, and thus, all helper T cell responses are triggered by peptides presented in the respective human MHC-II binding site. As an initial in vivo test of subject inhibitors designed to bind to DR, DR-transgenic mice were co-immunized with a pre-defined dose of protein antigen and different amounts of the compound antagonist to be tested. In this set-up, both antigen and compound were emulsified together in complete Freund's adjuvant (CFA), and thus, a direct competition between the two components for presentation by DR was tested. Readout of the assay is ex vivo antigen-specific activation of T cells from regional lymph nodes explanted 9 days after co-immunization. In a typical experiment, antigen dose-response was investigated, and the curves from mice immunized with antigen were compared to those from mice co-immunized with antigen+compound. The dose response curves were generated using lymph node cells pooled at equal numbers from 2-3 mice per experimental group. The experimental system also permits assessment of inherent antigenicity of the compound antagonist. This was done by setting up a dose-response study from the same cell pool using different concentrations of the compund under investigation instead of the antigen. As a specificity control, the response to Purified Protein Derivative (PPD), the major protein component of CFA, was tested in the same cell pool.
(§2) All Gpg conataining compounds have significant immunosupressive properties in one or both of the in-vivo models. Gpg-containing compounds also show improved activity or improved specificity over the Arg-containing equivilent. Further, compounds according to Formula I show activity in this assay.
(§3) Compounds of the invention were injected as an Emulsion prepared using CFA (Bacto Adjuvant Complete H37 Ra, Difco, Order-No. 3113-60); proteins 10 mg/ml in PBS, inhibitors 5 μM in 10% DMSO. CFA, PBS, antigen, and inhibitor were placed in the barrel of a 5-ml syringe (total volume not more than 1 mL). The mixture was sonicated at an amplitude less than 40% (30-35%) for two separated 15 s periods. The emulsion should seem to be hard and not liquid at this point. A drop of emulsion placed on the surface of water should not melt. The resulting emulsion was pushed through the needle into a 1 ml syringe with a needle (Gr.18, 26G×1″), and air bubbles were removed. Mice were co-immunized with 50 μg protein and 210 nM compound antagonist in final 100 μl emulsion into the tail base. Antigen+Compound and CFA are mixed 1:1 vol/vol. The best results are obtained using DR 4 mice immunised with HEL and DR 14 mice immunized with OVA.
(§4) Mice were injected at the tail-base as follows: Holding the tail of a mouse with thumb and middle finger, the index finger was placed under the base of the mouse's tail. The needle of the syringe was inserted about 1.5 cm from the tail base (hairy end) under the skin and pushed about 1 cm into the tail. 100 μl emulsion was injected into the mouse. After 9 days, mice were killed and lymph nodes removed.
(§5) The inhibitory effect of the candidate compounds on T-cell activation was tested using T-cells and antigen-presenting cells isolated from the lymph nodes of chimeric DR4-IE transgenic mice (Taconic, USA) previously co-immunized with hen egg lysozyme plus compound, or DR14-IE transgenic mice co-immunized with ovalbumin plus compound according to standard procedures (Adorini et al., 1988, Mueller et al., 1990; Current Protocols in Immunology, Vol. 2, 7.21; Ito et al., 1996). […]

[2] = system: T cell activation from 0401(DR4) chimeric MHCII-mice; assay: In vivo inhibition of T cell activation by co-immunisation, DR4 mice immunised with HEL; parameters: species or system mouse; % Reduction of response to PPD(HEL): concentration or dose not given beside the values
Excerpt: as §1, §2, §3, §4, §5

[3] = molecular target: Cathepsin B1 (EC 3.4.22.1 from bovine spleen) (Bos taurus, UniProt P07688); details: Cathepsin B, 4 h
[4] = molecular target: DR4Dw14 (DRA1*0101 DRB1*0404) (Homo sapiens, UniProt P01903+P01911, A100R/A169T/F76Y/I96L/K127E/L162R/M171V/N62H/P40V/Q125Y/R42H/S133A/S149N/S66Y/V209L/W38E); assay: Competitive binding to MHC-II protein DR4Dw14; details: 0404; read-out: Protein binding IC50 (nM) 0404
Summary of the method: (§6)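 Each MHC-II allele incubated with compound 16 hours at room temperature in duplicate; controls lacked compound, or both compound and MHC-II. Complexes captured 2 h at 4 °C, bound biotinylated peptide detected via europium-streptavidin and DELFIA enhancement, time-resolved fluorescence read at ex 340/em 613 (615) nm.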

[5] = molecular target: T1, LG2 (DR1: DRA1*0101 DRB1*0101) cells (Homo sapiens, UniProt P01903+P01911, A100R/D57E/F55L/F60I/F76Y/I96L/L162R/M171V/P40L/Q125E/R42F/V115G/Y59C); assay: Competitive binding to MHC II proteins expressed on LG2 cells; assay type: cell-based; details: Cell binding IC50 (uM) LG2 (0101), LG2 (0101)
T1 construct: MHC II Proteins Expressed on PRIESS and LG2 Cells; endogenous in cells; host or cells: LG2 cells
Procedure: (§7) For use in the binding assay the cells were re-suspended in medium containing 1% FCS at a density of 2.5×10^6 cells/ml.
(§8) The assay was performed in sterile 96 well polystyrene microtiter plates. A 10 fold dilution series of compounds (16 nM-1615 μM) in 1% FCS was prepared from 5 or 10 mM compound stock solutions in 10% DMSO/water. 50 μl of each compound dilution were added in duplicates to 50 μl of a 16 μM solution of indicator peptide in 1% FCS. Cell binding was initiated by adding 100 μl of 2.5×10^6 cells/ml 1% FCS to each well. Controls were included containing the DMSO concentration present in the solution with the highest compound concentration. The cells were incubated at 37° C., 6% CO2. After 4 hours the cells were washed with 200 μl PBS and lysed in 200 μl lysis buffer (50 mM sodium phosphate, 150 mM sodium chloride, 1% (w/v) NP-40, 25 mM iodoacetamide, 1 mM PMSF, 3.1% protease inhibitor cocktail: 0.32 g/l of Chymostatin, Antipain, Pepstatin A, Soybean trypsin inhibitor and Leupeptin each, pH 7.5) for 10 min.
(§9) After washing with PBS, 190 μl of cell lysate were transferred to the appropriate wells of the capture plate and incubated for 2 h at 4° C. The wells were washed six times with 200 μl/well cooled (4 to 8° C.) of 1×DELFIA wash (Wallac-ADL-GmbH, Freiburg), incubated with 100 μl of cooled Europium-streptavidin conjugate (Wallac-ADL-GmbH, Freiburg; diluted 1/1000 with DELFIA assay buffer) for 30 minutes at 4° C., again washed six times with cooled 1×DELFIA wash and, finally, incubated with 200 μl cooled DELFIA enhancement solution (Wallac-ADL-GmbH, Freiburg) for one hour at room temperature before reading the time-resolved europium fluorescence at λex Eu^3+: 340 nm and λem Eu^3+: 613 (615) nm (Wallac Victor^2 1420 Multilabel Counter, Wallac-ADL-GmbH, Freiburg).

[6] = molecular target: T2, Priess (DR4Dw4: DRA1*0101 DRB1*0401) cells (Homo sapiens, UniProt P01903+P01911, A100K/A169T/F76Y/I96L/K127E/L162R/M171V/N62H/P40V/Q125Y/R42H/S133A/S149N/S66Y/V115G/V209L/W38E); assay: Competitive binding to MHC II proteins expressed on Priess cells; assay type: cell-based
T2 construct: MHC II Proteins Expressed on PRIESS and LG2 Cells; endogenous in cells; host or cells: Priess cells
Procedure: as §7, §8, §9

[7] = system: T-cell proliferation, DR14-LN; details: read-out: Immunsupressive assays DR14-LN (IC50)
[8] = system: T-cell proliferation, lymph node cells of chimeric 0401-IE transgenic mice; details: read-out: Immunsupressive assays DR4-LN (IC50); DR4-LN
Procedure: The compounds were tested as follows to inhibit the proliferative T cell response of antigen-primed lymph node cells from mice carrying a chimeric mouse-human class II transgene with an RA-associated peptide binding site, and lack murine class II molecules (Muller et al., 1990; Woods et al., 1994; Current Protocols in Immunology, Vol. 2, 7.21; Ito et al., 1996). Here, the immunization takes place in vivo, but the inhibition and readout are ex vivo. […] These mice lack murine MHC class II, and thus, all Th responses are channelled through a single human RA-associated MHC class II molecule (Ito et al. 1996). These transgenic mice represent a model for testing human class II antagonists.
1.5×10^5 cells are incubated in 0.2 ml wells of 96-well tissue culture plates in the presence of ovalbumin (30 μg per well—half-maximal stimulatory concentration) and a dilution series of the compound under test (from around 0.1 to 200 uM) in serum free HL-1 medium containing 2 mM L-glutamine and 0.1 g/l Kanamycin for three days. Antigen specific proliferation is measured by 3H-methyl-thymidine (1 μCi/well) incorporation during the last 16 h of culture (Falcioni et al., 1999). Cells are harvested, and 3H incorporation measured using a scintillation counter (TopCount, Wallac Finland).

Cathepsin L = Cathepsin L (Homo sapiens, UniProt P07711)
[9] = molecular target: DR1 (DRA1*0101 DRB1*0101) (Homo sapiens, UniProt P01903+P01911, A100R/D57E/F55L/F60I/F76Y/I96L/L162R/M171V/P40L/Q125E/R42F/V115G/Y59C); assay: Competitive binding to MHC-II protein DR1; details: Protein binding IC50 (nM) 0101, 0101
Summary of the method: as §6

[10] = molecular target: DR4Dw4 (DRA1*0101 DRB1*0401) (Homo sapiens, UniProt P01903+P01911, A100K/A169T/F76Y/I96L/K127E/L162R/M171V/N62H/P40V/Q125Y/R42H/S133A/S149N/S66Y/V115G/V209L/W38E); assay: Competitive binding to MHC-II protein DR4Dw4
Summary of the method: as §6

Row | Compound | % Reduction of response to OVA ([1]; DR14 mice co-immunised with OVA plus compound, mean % inhibition from the control over 3 concentrations of antigen (6.7, 20 and 60 ug)) [%] | % Reduction of response to PPD(OVA) ([1]; specificity control: response to PPD in the same cell pool, OVA co-immunised mice) [%] | % Reduction of response to HEL ([2]; DR4 mice co-immunised with HEL plus compound, mean % inhibition from the control over 3 concentrations of antigen (6.7, 20 and 60 ug)) [%] | % Reduction of response to PPD(HEL) ([2]; specificity control: response to PPD in the same cell pool, HEL co-immunised mice) [%] | Stability (Arbitrary units) Cath B 4 h [3] | IC50 [4] [nM] | IC50 [5] [µM] | IC50 [6] [µM] | IC50 [7] [µM] | IC50 [8] [µM] | Stability (Arbitrary units) Cath L 4 h (Cathepsin L) [Arbitrary units] | IC50 [9] [nM] | IC50 [10] [µM]
1 | Ac-Cha-Gpg-Disc-Nle-βPhPro-[S(oxaz)L]-NMe2 [Compound P61-1] | 3.7 | 29.9 | 37.9 | 32.3 |  |  |  |  |  |  |  |  | 
2 | CSCC[C@H](NC(=O)[C@@H]1Cc2ccccc2CN1C(=O)[C@H](CCCNC(=N)N)NC(=O)[C@H](CC1CCCCC1)NC(C)=O)C(=O)N1CC[C@H](c2ccccc2)[C@H]1C(=O)N[C@@H](CO)c1nc(C(=O)N(C)C)c(C(C)C)o1 [Compound P33, Ac-Cha-Arg-Tic-Met-βPhPro-[S(oxaz)L]-NMe2] (Ac-[Cha]R[Tic]M[Pro(3R-Ph)][X1]-NMe2) |  |  |  |  | 97 Arbitrary units and 98 Arbitrary units | 220 | 4.6 | 3.2 | 32 | 40 | 107 | 190 | 0.3
